Reference: patent US12398132B2, “Derivatives of 4-(imidazo[1,2-a]pyridin-3-yl)-n-(pyridinyl)pyrimidin-2-amine as therapeutic agents” (AUCENTRA THERAPEUTICS PTY LTD, priority 2019, dated 2025)
Where a chain is given by its changes, count along the chain named. Read-outs that look alike come from different tables or passages of the source.

Legend:
[1] = target: CDK4/D1 (Homo sapiens, UniProt P11802); test: ADP Glo kinase assay, CDK4/D1; format: biochemical; conditions: CDK4D1; for Ki: apparent Ki calculated from Km (ATP) and IC50, read-out: CDK inhibition Ki; for remaining activity at 10 µM: compound at 10 μM, read-out: residual enzymatic activity (%) at 10 μM; for remaining activity at 1 µM: compound at 1 μM (values marked *), read-out: residual enzymatic activity (%) at 1 μM*
CDK4/D1, sequence (P11802 whole entry, species assumed): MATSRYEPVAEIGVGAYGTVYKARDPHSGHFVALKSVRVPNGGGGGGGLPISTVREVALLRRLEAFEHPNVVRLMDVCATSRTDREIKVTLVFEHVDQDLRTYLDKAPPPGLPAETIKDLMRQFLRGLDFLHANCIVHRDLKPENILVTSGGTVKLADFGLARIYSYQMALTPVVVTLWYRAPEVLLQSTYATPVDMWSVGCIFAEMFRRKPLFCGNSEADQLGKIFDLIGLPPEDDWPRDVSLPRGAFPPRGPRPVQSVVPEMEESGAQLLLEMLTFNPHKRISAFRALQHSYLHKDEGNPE
CDK4/D1, sequence (P24385 whole entry partner, species assumed): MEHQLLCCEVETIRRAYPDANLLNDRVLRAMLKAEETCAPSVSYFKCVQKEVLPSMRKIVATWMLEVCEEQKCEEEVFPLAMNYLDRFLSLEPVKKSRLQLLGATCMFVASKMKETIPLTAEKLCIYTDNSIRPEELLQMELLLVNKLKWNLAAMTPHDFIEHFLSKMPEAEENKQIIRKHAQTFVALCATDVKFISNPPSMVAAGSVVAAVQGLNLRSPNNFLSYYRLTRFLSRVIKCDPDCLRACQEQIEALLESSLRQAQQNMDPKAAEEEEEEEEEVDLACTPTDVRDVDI
Experimental: (§1) Inhibition of FLT3(WT), FLT3(ITD) and FLT3(D835Y) and CDKs were determined using ADP Glo Kinase assays (Promega Corporation, Madison, WI, USA). […] Similarly, kinase reaction for CDK4/D1 and CDK6/D3 was performed with reaction buffer (40 nM Tris base pH 7.5, 20 mM MgCl2, 0.4 mM DTT), 0.1 mg/ml BSA and RB-CTF substrate (retinoblastoma protein1 C-terminal fraction). For CDK9/CyclinT1, the kinase reaction was performed with the standard assay buffer and Kinase Dilution Buffer and RBER-IRStide substrate. Half-maximal inhibition (IC50) values were calculated using a 4-parameter logistic non-linear regression model with Graphpad prism (Version 6.0). Apparent inhibition constants (Ki) values were calculated from Km (ATP) and IC50 values for the respective kinases.

[2] = target: CDK6/D3 (Homo sapiens, UniProt Q00534); test: ADP Glo kinase assay, CDK6/D3; format: biochemical; conditions: CDK6D3; for Ki: apparent Ki calculated from Km (ATP) and IC50, read-out: CDK inhibition Ki; for remaining activity at 10 µM: compound at 10 μM, read-out: residual enzymatic activity (%) at 10 μM; for remaining activity at 1 µM: compound at 1 μM (values marked *), read-out: residual enzymatic activity (%) at 1 μM*
CDK6/D3, sequence (Q00534 whole entry, species assumed): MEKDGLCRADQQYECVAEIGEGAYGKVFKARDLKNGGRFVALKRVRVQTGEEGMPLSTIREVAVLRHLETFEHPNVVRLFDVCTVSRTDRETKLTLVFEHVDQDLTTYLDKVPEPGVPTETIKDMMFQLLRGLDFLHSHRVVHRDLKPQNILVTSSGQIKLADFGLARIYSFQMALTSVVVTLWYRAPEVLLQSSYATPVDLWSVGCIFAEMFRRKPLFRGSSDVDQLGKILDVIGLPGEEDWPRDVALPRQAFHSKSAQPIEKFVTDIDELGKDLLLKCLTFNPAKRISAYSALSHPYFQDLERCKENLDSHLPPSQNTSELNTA
CDK6/D3, sequence (P30281 whole entry partner, species assumed): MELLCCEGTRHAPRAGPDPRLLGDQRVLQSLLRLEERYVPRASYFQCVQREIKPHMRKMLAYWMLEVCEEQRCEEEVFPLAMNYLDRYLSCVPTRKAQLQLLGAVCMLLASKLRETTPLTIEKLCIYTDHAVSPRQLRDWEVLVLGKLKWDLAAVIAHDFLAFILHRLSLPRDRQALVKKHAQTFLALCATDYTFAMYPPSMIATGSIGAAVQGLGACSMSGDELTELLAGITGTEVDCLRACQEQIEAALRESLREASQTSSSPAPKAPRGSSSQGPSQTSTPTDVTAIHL
Experimental: as §1

[3] = target: CDK9/CyclinT1 (Homo sapiens, UniProt P50750); test: ADP Glo kinase assay, CDK9/CyclinT1; format: biochemical; conditions: CDK9T1; for Ki: apparent Ki calculated from Km (ATP) and IC50, read-out: CDK inhibition Ki; for remaining activity at 10 µM: compound at 10 μM, read-out: residual enzymatic activity (%) at 10 μM
CDK9/CyclinT1, sequence (P50750 whole entry, species assumed): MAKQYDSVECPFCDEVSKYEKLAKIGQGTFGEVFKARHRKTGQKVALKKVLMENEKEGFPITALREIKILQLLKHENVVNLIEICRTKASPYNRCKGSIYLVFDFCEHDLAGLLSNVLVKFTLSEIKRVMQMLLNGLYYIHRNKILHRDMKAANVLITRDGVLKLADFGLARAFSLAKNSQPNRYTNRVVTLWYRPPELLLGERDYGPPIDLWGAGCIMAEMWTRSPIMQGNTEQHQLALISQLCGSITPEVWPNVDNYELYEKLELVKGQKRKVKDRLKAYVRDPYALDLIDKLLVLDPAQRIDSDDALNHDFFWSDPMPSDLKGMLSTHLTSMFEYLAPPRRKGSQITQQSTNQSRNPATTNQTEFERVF
CDK9/CyclinT1, sequence (O60563 whole entry partner, species assumed): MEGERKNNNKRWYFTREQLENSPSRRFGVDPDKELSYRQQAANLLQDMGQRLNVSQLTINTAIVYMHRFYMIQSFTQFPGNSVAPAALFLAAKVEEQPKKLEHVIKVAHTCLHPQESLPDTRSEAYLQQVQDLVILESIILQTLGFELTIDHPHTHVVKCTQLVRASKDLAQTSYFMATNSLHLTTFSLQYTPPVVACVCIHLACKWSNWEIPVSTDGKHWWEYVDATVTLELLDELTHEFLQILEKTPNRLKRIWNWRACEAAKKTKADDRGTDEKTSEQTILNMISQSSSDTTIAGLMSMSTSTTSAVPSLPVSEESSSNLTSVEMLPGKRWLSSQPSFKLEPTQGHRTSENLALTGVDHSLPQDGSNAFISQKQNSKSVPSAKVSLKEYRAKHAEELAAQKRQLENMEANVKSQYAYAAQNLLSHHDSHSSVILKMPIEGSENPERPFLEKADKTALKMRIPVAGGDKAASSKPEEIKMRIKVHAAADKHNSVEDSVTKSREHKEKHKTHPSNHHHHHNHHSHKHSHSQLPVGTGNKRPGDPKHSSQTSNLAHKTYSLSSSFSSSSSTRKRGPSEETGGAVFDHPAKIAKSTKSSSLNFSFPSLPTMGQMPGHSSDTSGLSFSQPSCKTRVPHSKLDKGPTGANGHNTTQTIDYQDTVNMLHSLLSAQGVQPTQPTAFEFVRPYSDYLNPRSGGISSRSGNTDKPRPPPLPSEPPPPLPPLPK

[4] = test system: MV-4-11; test: Proliferation assay (resazurin/MTT), MV-4-11; format: cell-based; conditions: Homo sapiens, MV4-11, read-out: 72 h Growth inhibition GI50, MV-4-11 cells
[5] = test system: U937; test: Proliferation assay (resazurin/MTT), U937; format: cell-based; conditions: Homo sapiens, U-937, read-out: 72 h Growth inhibition GI50, U937 cells
[6] = target: CDK2E1 (Homo sapiens, UniProt P24941)
[7] = target: T1, CDK1B (Homo sapiens, UniProt P06493); test: biochemical
T1 sequence (P06493 whole entry): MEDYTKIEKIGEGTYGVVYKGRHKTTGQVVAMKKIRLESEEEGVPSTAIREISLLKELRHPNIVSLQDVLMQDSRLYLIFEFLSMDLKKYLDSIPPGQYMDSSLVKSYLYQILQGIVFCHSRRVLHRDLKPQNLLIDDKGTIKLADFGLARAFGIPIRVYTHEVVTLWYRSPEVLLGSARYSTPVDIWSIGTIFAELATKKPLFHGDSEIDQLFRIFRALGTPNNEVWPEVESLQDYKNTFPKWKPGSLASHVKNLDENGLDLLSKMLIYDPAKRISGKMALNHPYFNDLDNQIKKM
T1 sequence (P14635 whole entry partner): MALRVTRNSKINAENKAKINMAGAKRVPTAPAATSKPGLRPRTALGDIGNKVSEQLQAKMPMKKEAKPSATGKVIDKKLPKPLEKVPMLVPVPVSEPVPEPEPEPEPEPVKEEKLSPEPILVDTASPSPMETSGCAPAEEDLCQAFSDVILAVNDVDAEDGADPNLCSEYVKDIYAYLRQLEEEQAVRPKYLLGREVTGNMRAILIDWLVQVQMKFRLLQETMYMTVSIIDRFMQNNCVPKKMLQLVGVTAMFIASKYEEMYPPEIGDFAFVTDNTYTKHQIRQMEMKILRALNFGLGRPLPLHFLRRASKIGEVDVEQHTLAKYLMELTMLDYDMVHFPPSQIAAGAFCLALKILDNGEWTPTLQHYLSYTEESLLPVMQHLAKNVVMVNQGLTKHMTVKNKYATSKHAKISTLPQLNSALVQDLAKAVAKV

[8] = target: CDK7HMAT1 (Homo sapiens, UniProt P50613);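 also: kinase activity measured with an ADP-Glo luminescent kinase assay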
CDK7HMAT1, sequence (P50613 whole entry): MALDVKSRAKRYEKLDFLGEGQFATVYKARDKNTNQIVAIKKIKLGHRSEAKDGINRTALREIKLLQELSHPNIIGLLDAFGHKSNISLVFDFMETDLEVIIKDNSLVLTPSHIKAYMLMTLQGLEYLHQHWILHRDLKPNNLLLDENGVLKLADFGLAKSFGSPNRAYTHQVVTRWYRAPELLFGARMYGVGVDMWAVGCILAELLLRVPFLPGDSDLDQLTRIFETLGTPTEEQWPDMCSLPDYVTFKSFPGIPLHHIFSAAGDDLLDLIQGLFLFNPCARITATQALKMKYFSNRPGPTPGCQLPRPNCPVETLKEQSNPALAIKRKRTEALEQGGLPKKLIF
CDK7HMAT1, sequence (P51946 whole entry partner): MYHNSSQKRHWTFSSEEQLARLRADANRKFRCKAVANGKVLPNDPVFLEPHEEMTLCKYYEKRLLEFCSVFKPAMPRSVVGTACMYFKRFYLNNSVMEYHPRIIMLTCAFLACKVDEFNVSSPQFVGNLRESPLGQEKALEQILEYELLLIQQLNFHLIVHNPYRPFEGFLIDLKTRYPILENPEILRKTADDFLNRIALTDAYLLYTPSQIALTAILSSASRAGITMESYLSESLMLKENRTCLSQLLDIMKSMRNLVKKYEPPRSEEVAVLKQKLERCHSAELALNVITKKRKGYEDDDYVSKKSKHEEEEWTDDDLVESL
CDK7HMAT1, sequence (P51948 whole entry partner): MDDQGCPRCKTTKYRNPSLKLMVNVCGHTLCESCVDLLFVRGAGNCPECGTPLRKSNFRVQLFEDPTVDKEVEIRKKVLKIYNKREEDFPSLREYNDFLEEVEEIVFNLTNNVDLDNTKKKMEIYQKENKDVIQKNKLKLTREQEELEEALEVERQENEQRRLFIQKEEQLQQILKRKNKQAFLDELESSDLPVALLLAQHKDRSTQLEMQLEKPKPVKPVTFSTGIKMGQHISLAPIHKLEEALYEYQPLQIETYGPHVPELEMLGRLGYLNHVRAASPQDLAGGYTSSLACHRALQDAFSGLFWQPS
Experimental: (§2) Inhibition of FLT3(WT), FLT3(ITD) and FLT3(D835Y) and CDKs were determined using ADP Glo Kinase assays (Promega Corporation, Madison, WI, USA). […] The kinase reactions are run for an optimised time period (FLT3-WT: 120 min, FLT3-ITD: 80 min, FLT3-D835Y: 100 min) at room temperature and then the reaction was stopped by adding 5 μL of ADP Glo reagent. […] Positive and negative controls were performed in 0.5% DMSO in the presence and absence of each FLT3 kinase, respectively. […] Half-maximal inhibition (IC50) values were calculated using a 4-parameter logistic non-linear regression model with Graphpad prism (Version 6.0). Apparent inhibition constants (Ki) values were calculated from Km (ATP) and IC50 values for the respective kinases.

[9] = target: T2, FLT3(WT) (Homo sapiens, UniProt P36888); test: ADP Glo kinase assay, FLT3(WT); format: biochemical; conditions: for Ki: apparent Ki calculated from Km (ATP) and IC50, read-out: FLT3 inhibition Ki
T2 sequence (P36888 27-993): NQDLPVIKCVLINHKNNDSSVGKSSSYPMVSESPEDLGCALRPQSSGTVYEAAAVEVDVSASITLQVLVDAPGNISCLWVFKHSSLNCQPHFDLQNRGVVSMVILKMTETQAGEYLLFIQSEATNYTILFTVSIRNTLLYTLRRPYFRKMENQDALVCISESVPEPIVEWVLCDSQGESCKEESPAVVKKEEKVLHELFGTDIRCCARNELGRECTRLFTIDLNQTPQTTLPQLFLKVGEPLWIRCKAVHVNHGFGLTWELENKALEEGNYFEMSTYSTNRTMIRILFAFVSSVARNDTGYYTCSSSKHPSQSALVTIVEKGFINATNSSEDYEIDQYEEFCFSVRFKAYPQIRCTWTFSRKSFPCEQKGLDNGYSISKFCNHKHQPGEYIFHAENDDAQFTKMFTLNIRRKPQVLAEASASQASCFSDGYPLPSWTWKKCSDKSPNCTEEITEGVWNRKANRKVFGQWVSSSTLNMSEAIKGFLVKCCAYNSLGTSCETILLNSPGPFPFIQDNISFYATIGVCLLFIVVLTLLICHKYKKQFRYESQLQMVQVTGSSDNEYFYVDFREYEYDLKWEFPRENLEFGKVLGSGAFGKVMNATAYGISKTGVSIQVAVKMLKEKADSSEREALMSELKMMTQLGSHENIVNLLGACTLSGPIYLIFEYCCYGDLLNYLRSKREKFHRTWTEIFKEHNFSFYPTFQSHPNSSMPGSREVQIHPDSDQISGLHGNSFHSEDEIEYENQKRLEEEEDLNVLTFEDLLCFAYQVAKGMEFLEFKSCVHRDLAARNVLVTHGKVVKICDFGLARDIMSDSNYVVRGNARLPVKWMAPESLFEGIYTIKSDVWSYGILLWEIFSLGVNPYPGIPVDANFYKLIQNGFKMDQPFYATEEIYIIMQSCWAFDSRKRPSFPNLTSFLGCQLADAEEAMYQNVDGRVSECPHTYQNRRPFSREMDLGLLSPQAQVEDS
Experimental: as §2

[10] = target: T3, FLT3(ITD) (Homo sapiens, UniProt P36888); test: ADP Glo kinase assay, FLT3(ITD); format: biochemical; conditions: apparent Ki calculated from Km (ATP) and IC50, read-out: FLT3 inhibition Ki
T3 sequence (P36888 1-993): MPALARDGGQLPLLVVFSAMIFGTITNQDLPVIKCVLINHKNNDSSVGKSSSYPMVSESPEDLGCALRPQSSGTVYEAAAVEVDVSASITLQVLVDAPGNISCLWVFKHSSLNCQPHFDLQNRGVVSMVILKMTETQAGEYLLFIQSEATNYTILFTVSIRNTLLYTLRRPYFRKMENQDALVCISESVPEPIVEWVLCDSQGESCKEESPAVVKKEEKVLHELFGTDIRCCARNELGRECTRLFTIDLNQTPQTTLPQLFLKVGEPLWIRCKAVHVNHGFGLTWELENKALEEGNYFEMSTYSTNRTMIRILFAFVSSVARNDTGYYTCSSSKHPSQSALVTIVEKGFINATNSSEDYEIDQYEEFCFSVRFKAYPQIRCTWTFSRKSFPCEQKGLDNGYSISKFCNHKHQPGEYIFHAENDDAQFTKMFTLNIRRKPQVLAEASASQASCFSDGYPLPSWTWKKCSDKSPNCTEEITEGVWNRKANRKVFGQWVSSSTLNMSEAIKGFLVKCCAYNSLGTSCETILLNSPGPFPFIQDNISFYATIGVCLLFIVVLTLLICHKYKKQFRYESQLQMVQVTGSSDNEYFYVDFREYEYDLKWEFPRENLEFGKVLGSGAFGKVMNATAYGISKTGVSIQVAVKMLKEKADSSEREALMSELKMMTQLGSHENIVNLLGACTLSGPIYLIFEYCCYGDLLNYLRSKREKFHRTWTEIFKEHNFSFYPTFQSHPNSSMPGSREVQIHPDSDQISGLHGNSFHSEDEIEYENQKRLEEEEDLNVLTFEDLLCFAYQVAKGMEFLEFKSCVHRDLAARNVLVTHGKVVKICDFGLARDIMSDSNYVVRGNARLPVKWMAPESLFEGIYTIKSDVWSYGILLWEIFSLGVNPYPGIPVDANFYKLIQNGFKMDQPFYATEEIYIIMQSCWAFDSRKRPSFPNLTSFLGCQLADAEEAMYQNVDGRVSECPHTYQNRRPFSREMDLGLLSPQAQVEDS
Experimental: as §2

[11] = target: T4, FLT3(D835Y) (Homo sapiens, UniProt P36888, D835Y); test: ADP Glo kinase assay, FLT3(D835Y); format: biochemical; conditions: apparent Ki calculated from Km (ATP) and IC50, read-out: FLT3 inhibition Ki
T4 sequence (P36888 27-993 D835Y): T2 sequence (P36888 27-993) with D809Y
Experimental: as §2

[12] = target: T1, CDK1B

| SMILES | Ki [2] | Ki [3] | GI50 [4] | GI50 [5] | Ki [7] | remaining activity at 10 µM [1] | remaining activity at 10 µM [3] | activity ([6]; 1 µM) | activity ([8]; 10 µM) | Ki [9] | Ki [10] | Ki [11] | also measured |
| --- | --- | --- | --- | --- | --- | --- | --- | --- | --- | --- | --- | --- | --- |
| CC(=O)N1CCN(c2ccc(Nc3nccc(-c4cnc5ccccn45)n3)nc2)CC1 [Cmpd 3, 1-(4-(6-((4-(Imidazo[1,2-a]pyridin-3-yl)pyrimidin-2-yl)amino)pyridin-3-yl)piperazin-1-yl)ethan-1-one] | > 10000 nM | 519 nM | 20 nM | 2850 nM | 3460 nM | – | – | – | – | – | – | – | Ki [1]: 1970 nM; activity ([6]; 10 µM): 49% |
| c1ccn2c(-c3ccnc(Nc4ccc(N5CCOCC5)cn4)n3)cnc2c1 [Cmpd 4, 4-(Imidazo[1,2-a]pyridin-3-yl)-N-(5-morpholinopyridin-2-yl)pyrimidin-2-amine] | 2900 nM | – | 38 nM | 3360 nM | 1480 nM | 38% | 28% | 72% | 74% | – | – | – | – |
| CC(=O)N1CCN(c2ccc(Nc3nccc(-c4cnc5ccc(-c6cnc(N7CCN(C)CC7)nc6)cn45)n3)nc2)CC1 [Cmpd 20, 1-(4-(6-((4-(6-(2-(4-Methylpiperazin-1-yl)pyrimidin-5-yl)imidazo[1,2-a]pyridin-3-yl)pyrimidin-2-yl)amino)pyridin-3-yl)piperazin-1-yl)ethan-1-one] | – | – | 60 nM | 4040 nM | – | 70% | 38% | 83% | 66% | – | 127 nM | 58 nM | remaining activity at 10 µM [2]: 77%; remaining activity at 1 µM ([9]; compound at 1 μM, read-out: residual enzymatic activity (%) at 1 μM): 36%; activity ([12]; 10 µM): 100% |
| CS(=O)(=O)N1CCN(c2ccc(Nc3nccc(-c4cnc5ccc(Br)cn45)n3)nc2)CC1 [Cmpd 50, 4-(6-Bromoimidazo[1,2-a]pyridin-3-yl)-N-(5-(4-(methylsulfonyl)piperazin-1-yl)pyridin-2-yl)pyrimidin-2-amine] | – | – | 7 nM | 127 nM | – | – | – | 74% | – | 35 nM | 180 nM | 15 nM | remaining activity at 1 µM [1]: 40%; remaining activity at 1 µM [2]: 63%; remaining activity at 1 µM ([3]; compound at 1 μM (values marked *), read-out: residual enzymatic activity (%) at 1 μM*): 48%; activity ([12]; 1 µM): 62%; activity ([8]; 1 µM): 57% |

These reach a lower GI50 [4]. Values come first.

| Ki [2] | Ki [3] | GI50 [4] | GI50 [5] | Ki [7] | remaining activity at 10 µM [1] | remaining activity at 10 µM [3] | activity ([6]; 1 µM) | activity ([8]; 10 µM) | Ki [9] | Ki [10] | Ki [11] | SMILES | also measured |
| --- | --- | --- | --- | --- | --- | --- | --- | --- | --- | --- | --- | --- | --- |
| – | – | 2 nM | 3130 nM | – | 34% | 23% | 58% | 55% | 83 nM | 6 nM | 10 nM | CC(=O)N1CCN(c2ccc(Nc3nccc(-c4cnc5ccc(Br)cn45)n3)nc2)CC1 [Cmpd 10, 1-(4-(6-((4-(6-Bromoimidazo[1,2-a]pyridin-3-yl)pyrimidin-2-yl)amino)pyridin-3-yl)piperazin-1-yl)ethan-1-one] | remaining activity at 10 µM [2]: 36%; activity ([12]; 10 µM): 41% |
| 2400 nM | 163 nM | 6 nM | 1470 nM | 2450 nM | – | – | 52% | 77% | – | – | – | CC(=O)N1CCN(c2ccc(Nc3nccc(-c4cnc5ccc(C)cn45)n3)nc2)CC1 [Cmpd 13, 1-(4-(6-((4-(6-Methylimidazo[1,2-a]pyridin-3-yl)pyrimidin-2-yl)amino)pyridin-3-yl)piperazin-1-yl)ethan-1-one] | Ki [1]: 419 nM |
| – | 475 nM | 6 nM | 3570 nM | – | – | – | 75% | – | 38 nM | 44 nM | 18 nM | CC(=O)N1CCN(c2ccc(Nc3nccc(-c4cnc5ccc(I)cn45)n3)nc2)CC1 [Cmpd 43, 1-(4-(6-((4-(6-Iodoimidazo[1,2-a]pyridin-3-yl)pyrimidin-2-yl)amino)pyridin-3-yl)piperazin-1-yl)ethan-1-one] | remaining activity at 1 µM [1]: 70%; remaining activity at 1 µM [2]: 70%; activity ([12]; 1 µM): 92%; activity ([8]; 1 µM): 75% |
